From PMC4708007 (Bioscience Reports, 2015)
Where two headings read alike, the source gives them in different places.

How the values were obtained:
[1] = target: T1, EcRelA (Escherichia coli, UniProt P0AG20); type: biochemical
T1 construct: gene relA

[2] = target: Francisella tularensis RelA (Francisella tularensis subspecies tularensis SCHU S4); assay: SEC

T1 sequence (P0AG20 whole entry): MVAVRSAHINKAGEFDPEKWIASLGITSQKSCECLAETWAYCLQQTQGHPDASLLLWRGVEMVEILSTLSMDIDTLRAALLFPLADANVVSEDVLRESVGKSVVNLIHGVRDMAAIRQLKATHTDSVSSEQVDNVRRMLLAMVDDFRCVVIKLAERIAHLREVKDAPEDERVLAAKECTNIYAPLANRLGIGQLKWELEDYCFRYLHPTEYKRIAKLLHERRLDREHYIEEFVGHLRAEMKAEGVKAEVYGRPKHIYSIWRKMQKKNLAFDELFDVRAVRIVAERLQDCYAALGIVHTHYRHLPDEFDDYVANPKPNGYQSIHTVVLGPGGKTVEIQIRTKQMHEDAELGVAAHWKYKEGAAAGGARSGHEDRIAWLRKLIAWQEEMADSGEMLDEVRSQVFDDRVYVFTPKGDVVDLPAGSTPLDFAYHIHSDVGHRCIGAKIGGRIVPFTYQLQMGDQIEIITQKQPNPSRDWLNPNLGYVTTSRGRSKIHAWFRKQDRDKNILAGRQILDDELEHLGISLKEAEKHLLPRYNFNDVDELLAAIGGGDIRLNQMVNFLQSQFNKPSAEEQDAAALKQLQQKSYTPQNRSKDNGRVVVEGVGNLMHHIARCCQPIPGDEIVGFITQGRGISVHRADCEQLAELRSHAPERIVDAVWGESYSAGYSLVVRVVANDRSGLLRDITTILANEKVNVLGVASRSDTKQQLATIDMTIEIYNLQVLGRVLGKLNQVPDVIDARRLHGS

Compound: Nc1nc2c(ncn2[C@@H]2O[C@H](COP(=O)(O)OP(=O)(O)OP(=O)(O)O)[C@@H](O)[C@H]2O)c(=O)[nH]1 [GTP]
- IP RP HPLC end-point assay of AMP formation [1]: Both EcRelA and FtRelA demonstrated basal levels of activity in the absence of stalled ribosomes

Compound: Nc1ncnc2c1ncn2[C@@H]1O[C@H](COP(=O)(O)OP(=O)(O)OP(=O)(O)O)[C@@H](O)[C@H]1O [ATP]
- IP RP HPLC end-point assay of AMP formation ([1]; 2 mM ATP and 2 mM GTP, 0.5 μM RelA, with or without stalled ribosomal complexes, 15 mM MgCl2, pH 8.0, 30°C): Both EcRelA and FtRelA demonstrated basal levels of activity in the absence of stalled ribosomes

Compound: Francisella tularensis RelA (enzyme)
- stoichiometry N [2]: 2
